In patent US7951551B2, “Kits and reagents for luciferase detection assay system” (PerkinElmer Life and Analytical Sciences B.V., priority 2005, dated 2011):
Like-named read-outs stand apart in the source and are kept apart here.

Experiments:
luciferase [1] = biological target: T1, luciferase (Photinus pyralis, UniProt P08659); conditions: ATP assay, higher Tris-phosphate ion concentrations, integral 1-420 minutes
Target sequence in this assay (P08659 whole entry): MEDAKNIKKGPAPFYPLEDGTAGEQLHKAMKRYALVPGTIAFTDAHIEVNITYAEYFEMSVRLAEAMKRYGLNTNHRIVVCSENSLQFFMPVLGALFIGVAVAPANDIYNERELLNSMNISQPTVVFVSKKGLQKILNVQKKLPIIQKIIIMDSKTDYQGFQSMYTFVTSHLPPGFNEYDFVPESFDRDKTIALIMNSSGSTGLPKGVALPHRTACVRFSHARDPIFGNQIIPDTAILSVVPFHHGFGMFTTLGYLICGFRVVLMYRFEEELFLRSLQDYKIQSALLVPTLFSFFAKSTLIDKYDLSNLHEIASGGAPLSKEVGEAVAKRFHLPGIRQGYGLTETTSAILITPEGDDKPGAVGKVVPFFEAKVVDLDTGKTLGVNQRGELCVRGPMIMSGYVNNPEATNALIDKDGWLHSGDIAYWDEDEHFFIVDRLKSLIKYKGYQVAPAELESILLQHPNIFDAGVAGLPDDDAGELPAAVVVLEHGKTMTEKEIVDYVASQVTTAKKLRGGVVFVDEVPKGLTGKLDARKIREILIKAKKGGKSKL
Description: (§1) For this experiment 16 different reagent mixtures were prepared; 8 mixtures (for the ATP assay) contained a large amount of luciferase, a small amount of ATP and increasing Tris-phosphate concentrations and 8 mixtures (for the luciferase assay) contained a large amount of ATP, a small amount of luciferase and increasing amounts of Tris-phosphate. To reduce variances that might be introduced by small concentrations differences between the reagents, all reagents were made from the same stock solutions where possible.
An “ATP sample” was prepared by diluting a reconstituted lyophilized ATP standard (PerkinElmer Inc.) in D'PBS^++ resulting in a 1.0×10^−8 mM ATP solution.
(§2) Likewise, in the same microplate the reaction kinetics when assaying for luciferase were measured by pipetting 100 μl of each Tris-phosphate concentration reagent with ATP, and adding 100 μl of “luciferase sample”.
(§3) The microplate was shaken for 10 seconds on a microplate-shaker and sealed with TopSeal-A™ (PerkinElmer Inc.). […] The luminescent light signal was immediately measured, meaning about 1 minute after mixing reagent and sample, and after 5 and 10 minutes. Hereafter the signal was measured repeatedly with 15 minute intervals to a total time of 420 minutes. […] The emitted light was quantified as counts per second (cps), count time 3 seconds per well.

luciferase [2] = biological target: T1, luciferase; experiment: Light yield of the luciferin-luciferase reaction (luciferase detection, TopCount luminescence, 0-420 min); assay type: biochemical, firefly; conditions: for final concentration up to which light yield increases: with 0.25 M phosphate
Description: A stock solution of 4.0 M Tris (source of ammonium ions) was neutralized with phosphoric acid (H3PO4) until a pH of 7.0 was reached. This stock buffer solution contained 2.0 M of phosphate. The stock solution was used to make a range of assay reagents comprising, respectively, 2.2, 1.1, 0.55, 0.275, 0.138, 0.069, 0.034 and 0.017 M Tris. The phosphate concentration in these assay reagents was […] phosphate, respectively.
Each reagent was checked for its pH to be 7.0 and was adjusted with small amounts of H3PO4 (several μl of a 2 M H3PO4 solution) if needed. The phosphate anions added in this manner had no significant effect on the above reported phosphate concentration. Each assay reagent was supplemented with D-luciferin, ATP and sodium-thiosulfate (Na2S2O3) by the addition of 250 μl of a freshly prepared stock solution (30 mM ATP, 3 mM D-luciferin, 100 mM thiosulfate adjusted to pH=7.0 with 1 M NaOH) to 2250 μl of assay reagent.
Luciferase was lyophilized in Dulbecco's-PBS with Mg and Ca (D'PBS^++) containing 0.05 g/ml trehalose and 0.016 g/ml BSA). Luciferase samples were prepared by reconstituting lyophilized luciferase in 200 μl water. The resulting solution was then diluted 100-fold by adding 150 μl of the reconstituted luciferase to 15 ml PBS (8.1 mM NaH2PO4, 1.5 mM KH2PO4, 2.7 mM KCl and 137 mM NaCl) containing 5 mM MgCl2, 5 mM CaCl2, 5 mM EDTA, 0.4% Thesit (a non-ionic detergent) and 0.1% bovine serum albumin (BSA). This yielded the “luciferase sample” solution which contained 27 ng/ml of luciferase.
The microplate was shaken for 10 seconds at 1100 rpm on a microplate-shaker and then immediately placed in a TopCount®-NXT Microplate Scintillation and Luminescence Counter. The resulting luminescent light signal was measured immediately after loading the microplate into the counter. The measurement was repeated after 5 and 10 minutes.
Final Tris concentrations in the different reaction mixtures were: 1.0, 0.5, 0.25, 0.125, 0.063, 0.031, 0.016 and 0.008 M. The phosphate concentrations were 0.5, 0.25, 0.125, 0.063, 0.031, 0.016, 0.008 and 0.004 M phosphate ions respectively. Final Mg^2+, D-luciferin, ATP, thiosulfate and luciferase concentrations in the reaction mixtures were 2.5 mM, 150 μM, 1.5 mM, 5 mM and 14 pg/μl, respectively.
FIG. 1 illustrates the effect of increasing Tris-phosphate concentrations in the luciferin-luciferase reaction mixture on the initial height and the decay of the light signal. To compare the total light yield (expressed as 10^9 counts) of each reaction mixture the areas under the curves were calculated by integrating the equations of the curves between 0 and 420 minutes. These equations of the curves were obtained using the option ‘trend line with equation’ of Microsoft Excel® software.
Stock solutions of 4.0 M ethanolamine (H2NCH2CH2OH) and 3.0 M ammonium-phosphate ((NH4)2HPO4) were neutralized with phosphoric acid (H3PO4) until pH 7.0 was reached. Dilutions were made in the same manner as described in example 1. Furthermore, all methods and other chemicals used to create the assay mixture and to test this for its light yield in a luciferin-luciferase reaction, were standardized and thus the same as in example 1. Final ethanolamine concentrations in the assay were 1.0, 0.5, 0.25, 0.125, 0.063, 0.031, 0.016 and 0.008 M, and 0.5, 0.25, 0.125, 0.063, 0.031, 0.016, 0.008 and 0.004 M phosphate, respectively. According to the present invention, a final concentration of 1M ethanolamine is assumed to provide the aqueous, neutral reaction mixture with 1M of ammonium ions. Thus, the concentration of ammonium ions in the reaction mixture is regarded to be identical to that of the source of ammonium ions. […]
Quantification of the reaction kinetics through surface area calculation under the curves is shown in Table 4 (ethanolamine-phosphate dilutions) and Table 5 (for ammonium-phosphate dilutions). […]
Target sequence in this assay (P08659 whole entry): as above

luciferase [3] = biological target: T1, luciferase; conditions: luciferase assay, up to 100 mM Tris-phosphate, integral 1-420 minutes
Target sequence in this assay (P08659 whole entry): as above
Description: as §1
A “luciferase sample” was prepared by reconstituting a lyophilized luciferase control sample (PerkinElmer Inc.) in H2O and diluting this in Dulbecco's PBS with Ca/Mg (D'PBS^++) to a 1.0×10^−7 g/l luciferase solution.
as §2, §3

[4] = cited from earlier work; for pKa (D/° C.): temperature coefficient of pKa, in brackets
[5] = cited from earlier work
luciferase [6] = biological target: T1, luciferase; experiment: Light yield of the luciferin-luciferase reaction (luciferase detection, TopCount luminescence, 0-420 min); assay type: biochemical, firefly; conditions: 0.5 mM reducing agent, 0.5 M Tris and 0.25 M phosphate
Target sequence in this assay (P08659 whole entry): as above

luciferase [7] = biological target: T1, luciferase; parameters: host or cells: eukaryotic cells (unspecified); conditions: 1% detergent, chemical lysis of eukaryotic cells; cited from earlier work
Target sequence in this assay (P08659 whole entry, species assumed): as the sequence (P08659 whole entry) above

[8] = biological target: Photinus pyralis luciferase (Photinus pyralis, UniProt P08659); conditions: compared to freshly prepared luciferase solution; 10% without DTT; cited from earlier work
Photinus pyralis luciferase, sequence (P08659 whole entry): as above

luciferase [9] = biological target: T1, luciferase; conditions: CoA in the assay reagent (U.S. Pat. No. 5,283,179); cited from earlier work
Target sequence in this assay (P08659 whole entry): as above

[10] = 5 mM reducing agent, 0.5 M Tris and 0.25 M phosphate

Q: For tris(hydroxymethyl)aminomethane, which “effect on total luminescence” value (luciferase [1]) is on record?
A: inhibit total luminescence

Q: What about the “Light Yield” value (luciferase [2]; 0.008 M Tris, 0.004 M phosphate, pH 7.0, 0-420 min) of the same compound?
A: 44.4 10^9counts

Q: What about the “Light Yield” value (luciferase [2]; 0.016 M Tris, 0.008 M phosphate, pH 7.0, 0-420 min) of the same compound?
A: 52.9 10^9counts

Q: What about the “Light Yield” value (luciferase [2]; 0.031 M Tris, 0.016 M phosphate, pH 7.0, 0-420 min) of the same compound?
A: 63.0 10^9counts

Q: And the “Light Yield” value (luciferase [2]; 0.063 M Tris, 0.031 M phosphate, pH 7.0, 0-420 min)?
A: 80.4 10^9counts

Q: And the “Light Yield” value (luciferase [2]; 0.125 M Tris, 0.063 M phosphate, pH 7.0, 0-420 min)?
A: 103.4 10^9counts

Q: What about the “Light Yield” value (luciferase [2]; 0.25 M Tris, 0.125 M phosphate, pH 7.0, 0-420 min) of the same compound?
A: 126.8 10^9counts

Q: And the “Light Yield” value (luciferase [2]; 0.5 M Tris, 0.25 M phosphate, pH 7.0, 0-420 min)?
A: 137.3 10^9counts

Q: What about the “Light Yield” value (luciferase [2]; 1.0 M Tris, 0.5 M phosphate, pH 7.0, 0-420 min) of the same compound?
A: 123.8 10^9counts

Q: What about the “final concentration up to which light yield increases” value (luciferase [2]) of the same compound?
A: 0.5 M

Q: What about the “effect on total luminescence” value (luciferase [3]) of the same compound?
A: enhances total luminescence

Q: Which “Light Yield” value (luciferase [2]; 0.016 M ammonium, […] phosphate, pH 7.0, 28 mM MOPS) does the source give for `N.N.N.O=P(O)(O)O` [Ammonium, ammonium-phosphate] here?
A: 31.8 10^9counts

Q: What about the “Light Yield” value (luciferase [2]; 0.031 M ammonium, 0.021 M phosphate, pH 7.0, 28 mM MOPS) of the same compound?
A: 43.7 10^9counts

Q: What about the “Light Yield” value (luciferase [2]; 0.063 M ammonium, 0.043 M phosphate, pH 7.0, 28 mM MOPS) of the same compound?
A: 69.3 10^9counts

Q: And the “Light Yield” value (luciferase [2]; 0.125 M ammonium, 0.088 M phosphate, pH 7.0, 28 mM MOPS)?
A: 83.2 10^9counts

Q: What about the “Light Yield” value (luciferase [2]; 0.25 M ammonium, 0.175 M phosphate, pH 7.0, 28 mM MOPS) of the same compound?
A: 88.9 10^9counts

Q: And the “Light Yield” value (luciferase [2]; 0.5 M ammonium, 0.35 M phosphate, pH 7.0, 28 mM MOPS)?
A: 113.1 10^9counts

Q: What about the “Light Yield” value (luciferase [2]; 1.0 M ammonium, 0.7 M phosphate, pH 7.0, 28 mM MOPS) of the same compound?
A: 80.7 10^9counts

Q: What about the “Light Yield” value (luciferase [2]; 2.0 M ammonium, 1.4 M phosphate, pH 7.0, 28 mM MOPS) of the same compound?
A: 44.6 10^9counts

Q: What about the “concentration up to which light yield increases” value (luciferase [2]; with 350 mM of phosphate) of the same compound?
A: 500 mM

Q: For `O=S(=O)(O)CCCNC(CO)(CO)CO` [TAPS, N-[tris(hydroxymethyl)methyl]-3-aminopropanesulfonic acid], which “pKa (D/° C.)” value [4] is on record?
A: (0.018) D/° C.

Q: With `O=C(O)CN(CCO)CCO` [Bicine, N,N-bis(2-hydroxyethyl)glycine] as the compound, how does the “pKa (D/° C.)” value [4] read?
A: (−0.018) D/° C.

Q: For `O=S(O)(O)=S` [Na2S2O3, sodium-thiosulfate], which “Light Yield” value (luciferase [2]; [10]) is on record?
A: 147.7 10^9counts

Q: For `O=C(O)CNC(CO)(CO)CO` [Tricine, N-[tris(hydroxymethyl)methyl]-glycine], which “pKa (D/° C.)” value [4] is on record?
A: (−0.021) D/° C.

Q: Which “pKa at 20° C.” value [4] does the source give for `NC(=O)CNCCS(=O)(=O)O` [ACES, N-(2-acetamido)-2-aminoethanesufonic acid] here?
A: 6.88

Q: What about the “pKa (D/° C.)” value [4] of the same compound?
A: −0.020 D/° C.

Q: For `O=S(=O)(O)CCCN1CCOCC1` [MOPS, 3-morpholinopropanesulfonic acid], which “pKa (D/° C.)” value [4] is on record?
A: −0.011 D/° C.

Q: Which results are given for `O=S(=O)(O)CCNC1CCCCC1` [CHES, 2-(cyclohexylamino)-1-ethanesulfonic acid]?
A: pKa at 20° C. [4]: 9.55; pKa (D/° C.) [4]: (−0.011) D/° C.

Q: Which “pKa (D/° C.)” value [4] does the source give for `O=S(=O)(O)CCN(CCO)CCO` [BES, N,N-bis(2-hydroxyethyl)-2-aminoethanesulfonic acid] here?
A: (−0.016) D/° C.

Q: With `O=S([O-])[O-].[Na+].[Na+]` [Na2SO3, sodium-sulfite] as the compound, how does the “Light Yield” value (luciferase [2]; [10]) read?
A: 136.8 10^9counts

Q: With `O=S(=O)(O)CCCN1CCN(CCO)CC1` [HEPPS (EPPS), 4-(2-hydroxyethyl)piperazine-1-propanesulfonic acid] as the compound, how does the “pKa (D/° C.)” value [4] read?
A: −0.011 D/° C.

Q: For `CC(C)N` [isopropylamine], which pKa [5] is on record?
A: 10.82

Q: For `O=S([O-])S(=O)[O-].[Na+].[Na+]` [Na2S2O4, sodium-dithionite], which “Light Yield” value (luciferase [6]) is on record?
A: 128.4 10^9counts

Q: For `NCCO` [Ethanolamine, ethanolamine], which “Light Yield” value (luciferase [2]; 0.008 M ethanolamine, 0.004 M phosphate, pH 7.0) is on record?
A: 41.6 10^9counts

Q: What about the “Light Yield” value (luciferase [2]; 0.016 M ethanolamine, 0.008 M phosphate, pH 7.0) of the same compound?
A: 49.6 10^9counts

Q: What about the “Light Yield” value (luciferase [2]; 0.031 M ethanolamine, 0.016 M phosphate, pH 7.0) of the same compound?
A: 59.2 10^9counts

Q: And the “Light Yield” value (luciferase [2]; 0.063 M ethanolamine, 0.031 M phosphate, pH 7.0)?
A: 70.0 10^9counts

Q: What about the “Light Yield” value (luciferase [2]; 0.125 M ethanolamine, 0.063 M phosphate, pH 7.0) of the same compound?
A: 96.2 10^9counts

Q: What about the “Light Yield” value (luciferase [2]; 0.25 M ethanolamine, 0.125 M phosphate, pH 7.0) of the same compound?
A: 115.4 10^9counts

Q: And the “Light Yield” value (luciferase [2]; 0.5 M ethanolamine, 0.25 M phosphate, pH 7.0)?
A: 124.8 10^9counts

Q: What about the “Light Yield” value (luciferase [2]; 1.0 M ethanolamine, 0.5 M phosphate, pH 7.0) of the same compound?
A: 99.0 10^9counts

Q: And the “final concentration up to which light yield increases” value (luciferase [2])?
A: 0.5 M

Q: With `O=C(O)CCP(CCC(=O)O)CCC(=O)O` [TCEP, Tris(2-carboxyethyl) phosphine] as the compound, how does the “Light Yield” value (luciferase [2]; [10]) read?
A: 122.1 10^9counts

Q: Which “greater light output over simple freeze-thaw lysis” value (luciferase [7]) does the source give for Triton™ X-100 here?
A: ≤ 25 fold

Q: For `NC(=O)CN(CC(=O)O)CC(=O)O` [ADA, N-(2-acetamido)iminodiacetic acid], which “pKa (D/° C.)” value [4] is on record?
A: −0.011 D/° C.

Q: Which “luciferase activity maintained in aged luciferase solution” value [8] does the source give for `O[C@H](CS)[C@H](O)CS` (racemic) [DTT, dithiothreitol] here?
A: 50%

Q: What about the “Light Yield” value (luciferase [2]; [10]) of the same compound?
A: 167.5 10^9counts

Q: With `O=S(=O)(O)CCCNC1CCCCC1` [CAPS, 3-(cyclohexylamino)-1-propanesulfonic acid] as the compound, how does the “pKa (D/° C.)” value [4] read?
A: (0.032) D/° C.

Q: Which “time for which increased light output is maintained” value (luciferase [9]) does the source give for `CC(C)(COP(=O)(O)OP(=O)(O)OC[C@H]1O[C@@H](n2cnc3c(N)ncnc32)[C@H](O)[C@@H]1OP(=O)(O)O)[C@@H](O)C(=O)NCCC(=O)NCCS` [CoA, coenzyme A] here?
A: at least 60 seconds
